# What was measured:
# [1] = molecular target: T1, CCR-3 receptor (Homo sapiens, UniProt P51677); assay: CCR-3 Receptor Binding Assay, inhibition of 125I eotaxin binding to CCR-3 L1.2 transfectant cells; details: 1 hour at room temperature
# T1 construct: expressed in transfected cells; host or cells: L1.2 cells (murine pre-B lymphoma line)
# T1 sequence (P51677 1-355): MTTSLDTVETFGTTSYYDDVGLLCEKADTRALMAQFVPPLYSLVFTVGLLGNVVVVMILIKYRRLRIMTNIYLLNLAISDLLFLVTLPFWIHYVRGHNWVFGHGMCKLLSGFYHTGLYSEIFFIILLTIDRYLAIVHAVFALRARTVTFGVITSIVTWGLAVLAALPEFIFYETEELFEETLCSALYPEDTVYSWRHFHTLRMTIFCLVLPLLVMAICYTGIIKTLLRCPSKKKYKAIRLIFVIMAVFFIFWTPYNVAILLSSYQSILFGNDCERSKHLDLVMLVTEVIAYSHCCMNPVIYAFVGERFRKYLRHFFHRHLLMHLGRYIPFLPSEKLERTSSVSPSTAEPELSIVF
# Method: The CCR-3 antagonistic activity of the compounds of the invention was determined by their ability to inhibit the binding of ^125I eotaxin to CCR-3 L1.2 transfectant cells (see Ponath, P. D. et al., J. Exp. Med., Vol. 183, 2437–2448, (1996)).
# The assay was performed in Costar 96-well polypropylene round bottom plates. Test compounds were dissolved in DMSO and then diluted with binding buffer (50 mM HEPES, 1 mM CaCl2, 5 mM MgCl2, 0.5% bovine serum albumin (BSA), 0.02% sodium azide, pH 7.24) such that the final DMSO concentration was 2%. 25 μl of the test solution or only buffer with DMSO (control samples) was added to each well, followed by the addition of 25 μl of ^125I-eotaxin ([…]) (NEX314, New England Nuclear, Boston, Mass.) and 1.5×10^5 of the CCR-3 L1.2 transfected cells in 25 μl binding buffer. The final reaction volume was 75 μl.
# After incubating the reaction mixture for 1 hour at room temperature, the reaction was terminated by filtering the reaction mixture through polyethylenimine treated Packard Unifilter GF/C filter plate (Packard, Chicago, Ill.). The filters were washed four times with ice cold wash buffer containing 10 mm HEPES and 0.5M sodium chloride (pH 7.2) and dried at 65° C. for approximately 10 minutes. 25 μl/well of Microscint-20® scintillation fluid (Packard) was added and the radioactivity retained on the filters was determined by using the Packard TopCount®
melting point [°C],IC50 [1] [µM],Compound
221.8 to 222.7,,CS(=O)(=O)c1ccc(C(=O)N[C@@H]2CCC[C@H]2NCCc2ccc(Cl)cc2)cc1.Cl (racemic)
179 to 179.3,,CN(CCc1ccc(Cl)cc1)[C@@H]1CCC[C@H]1NC(=O)c1ccc(S(C)(=O)=O)cc1.Cl (racemic)
181.3 to 185.6,,COc1ccc(-c2cnc(SCC(=O)N[C@@H]3CCC[C@H]3NCCc3ccc(Cl)cc3)nc2)cc1OC.Cl (racemic)
75 to 82,,COc1cc(NC(=O)N[C@@H]2CCC[C@H]2N(C)CCCc2ccc(Cl)cc2)cc(OC)c1OC.Cl (racemic)
97 to 105,5.4,"COc1cc(NC(=O)N[C@@H]2CCC[C@H]2N(C)CCc2ccc(Cl)cc2)cc(OC)c1OC.Cl (racemic) [Compound 6, (±)-trans-1-(2-{[2-(4-Chlorophenyl)ethyl]methylamino}cyclopentyl)-3-(3,4,5-trimethoxyphenyl)urea hydrochloride]"
123.7 to 125.3,,COc1ccc(-c2cnc(SCC(=O)N[C@@H]3CCC[C@H]3N(C)CCc3ccc(Cl)cc3)nc2)cc1OC.Cl (racemic)
91.5 to 98.5,5.6,"COc1ccc(-c2cnc(SCC(=O)N[C@@H]3CCC[C@H]3N(C)CCCc3ccc(Cl)cc3)nc2)cc1OC.Cl (racemic) [Compound 9, (±)-trans-N-(2-{[3-(4-Chlorophenyl)propyl]methylamino}-cyclopentyl)-2-[5-(3,4-dimethoxyphenyl)pyrimidin-2-ylsulfanyl]acetamide hydrochloride]"
109 to 113,,CN(CCCc1ccc(Cl)cc1)[C@@H]1CCC[C@H]1NC(=O)c1ccc(S(C)(=O)=O)cc1.Cl (racemic)
95.3 to 111.3,18.2,"COc1ccc(-c2cnc(SCC(=O)N[C@@H]3CCC[C@H]3NCCCc3ccc(Cl)cc3)nc2)cc1OC.Cl (racemic) [Compound 1, (±)-trans-N-{2-[3-(4-Chlorophenyl)propylamino]cyclopentyl}-2-[5-(3,4-dimethoxyphenyl)pyrimidin-2-ylsulfanyl]acetamide hydrochloride]"
97 to 101.5,,COc1cc(NC(=O)N[C@@H]2CCC[C@H]2NCCc2ccc(Cl)cc2)cc(OC)c1OC.Cl (racemic)
91.3 to 96,,COc1cc(NC(=O)N[C@@H]2CCC[C@H]2NCCCc2ccc(Cl)cc2)cc(OC)c1OC.Cl (racemic)
192.3 to 196.8,6.8,"CS(=O)(=O)c1ccc(C(=O)N[C@@H]2CCC[C@H]2NCCCc2ccc(Cl)cc2)cc1.Cl (racemic) [Compound 2, (±)-trans-N-{2-[3-(4-Chlorophenyl)propylamino]cyclopentyl}-4-methanesulfonylbenzamide hydrochloride]"

# — patent publication US7049317B2, “CCR-3 receptor antagonists” (Syntex (U.S.A.) LLC, priority 2001, dated 2006)
